These results are taken from article PMC10786919, “Design-rules for stapled peptides with in vivo activity and their application to Mdm2/X antagonists” (Nature Communications, 2024).

In brackets after ≈: the same amount, converted by molar mass. Positions of bridges follow the written chain, without caps; N, C: chain ends. Non-standard residues stand in square brackets, D forms with d. Residues, ends and D or L forms follow the SMILES beside them. Lys(N3) = [N-]=[N+]=NCCCC[C@H](N)C(=O)O; R8 = C=CCCCCCC[C@@](C)(N)C(=O)O; Cba = N[C@@H](CC1CCC1)C(=O)O; S5 = C=CCCC[C@](C)(N)C(=O)O; βAla = NCCC(=O)O A value given as a limit tells only on which side of the number the result lay.

The nature of data set [1]: Lactate dehydrogenase (LDH) release assay. Format: cell-based. A digest of the protocol:
(§1)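 LDH release, fluorometric membrane-integrity read-out; HCT116 with stable p53-responsive β-lactamase reporter; 8000 cells/well; 0.5% DMSO final; geometric mean, n≥3 biological replicates.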

Data set [2] in a line: Solubility assay (kinetic solubility, PBS pH 7). Format: physicochemical. The following applies: pH 7, PBS; for solubility kinetic: pH 7, aqueous buffer, kinetic from dmso stock, read-out: Solubility. As to the method: The standard reference solutions were prepared by diluting the 10 mM stock in 10:80:10 solution of acetonitrile:methanol:DMSO to 100 µM.
The solubility value is calculated by the following equation:
Solubility [µM] = (Peak area of sample/ Peak area of standard) (Standard concentration)

Another data set is described as follows: in vitro. The following applies: Nanoclick permeability assay EC50. The source says:
Further, there have been several literature reports[18]–[20] that highlight that the combination of hydrophobic character and positive charge can result in mast cell degranulation (MCD), a potentially fatal condition[18]–[20]. […] The NanoClick assay[22] determines permeability of azide-labeled peptides by combining intracellular copper-free click chemistry with NanoBRET technology. Specifically, if an azido-peptide achieves cytosolic exposure, it will react with a cyclooctyne-decorated Halotag construct that is fused with nanoluciferase. This reaction blocks the click labelling of a subsequently added azido-labeled acceptor dye, thus decreasing the NanoBRET signal in a manner that is target-binding agnostic.
This assay was previously described in detail. The assay was performed in 384-well white assay plates (PerkinElmer CUSG03874) using assay-ready frozen cells that had been transiently transfected with the NanoLuc-HaloTag vector that were thawed at plated in complete media at a density of 6000 cells/ well and incubated at 37 °C 5% CO2 overnight. DIBAC-CA was diluted in assay buffer (OptiMem without phenol red + 1% FBS) and added to cells at a final concentration of 3 μM and incubated at 37 °C 5% CO2 for 1 h. Cells were subsequently centrifuged using a BlueWasher instrument (Blue Cat Bio) to remove the DIBAC-CA solution and washed two times with HBSS (Ca2 + , Mg2 + ). A volume of 30 μL of assay buffer was added back to cell plates. Peptides were serially diluted 4-fold in DMSO with a Hamilton Star apparatus and then delivered into assay plates with an acoustic liquid handler Labcyte ECHO (300 nl, 1% DMSO in-well concentration). After incubating cells with peptide for the desired time (4 or 18 h), the HaloTag ligand, NanoBret618-azide, was added to each well at a final concentration of 10 μM. […] Following addition of NanoBRET Nano-Glo Substrate, donor emission (450 nm) and acceptor emission (610 nm) were measured using an Envision instrument (PerkinElmer).

The nature of data set [3]: Experimental LogD (partition coefficient). The following applies: not stated, Partition Coeff LogD.
The next data set relates to HCT116 cells. The data set is described as follows: Lactate dehydrogenase (LDH) release assay. Format: cell-based. The essentials:
as §1

A word on the EC50: it is the midpoint of the concentration-response curve. A high value points to weaker potency. What is called logD is the decadic logarithm of the distribution of all forms, ionised or not, between an organic phase and buffer at a given pH. Low values mean a more hydrophilic compound, high ones a more lipophilic compound. `CC(=O)N[C@@H](CCCCN=[N+]=[N-])C(=O)NCCC(=O)N[C@@H](CC(C)C)C(=O)N[C@H](C(=O)N[C@@H](Cc1ccccc1)C(=O)N[C@]1(C)CCCCCCC=CCCC[C@@](C)(C(=O)N2CCC[C@H]2C(=O)N2CCC[C@H]2C(=O)N2CCC[C@H]2C(=O)N2CCC[C@H]2C(=O)N2CCC[C@H]2C(=O)N2CCC[C@H]2C(N)=O)NC(=O)[C@H](CC2CCC2)NC(=O)[C@H](CCC(N)=O)NC(=O)[C@H](C)NC(=O)[C@H](Cc2c[nH]c3ccccc23)NC(=O)[C@H](Cc2ccc(O)cc2)NC(=O)[C@H](CCC(=O)O)NC1=O)[C@@H](C)O` [MP-093] yielded an EC50 in data set [1] (LDH: Cytotoxicity assay EC50) greater than 50.7 µM. Besides, the solubility kinetic in data set [2] stood at 156 µM (≈ 363 µg/mL). Also, the cell entry EC50 in “in vitro” was determined as 1.38 µM. In data set [3], this molecule displayed a logD of 2.28.
On the same counts, the results for `CC(C)C[C@@H]1NC(=O)[C@H](C)NC(=O)[C@H](Cc2c[nH]c3ccccc23)NC(=O)[C@H](Cc2ccc(O)cc2)NC(=O)[C@H](CCC(=O)O)NC(=O)[C@](C)(NC(=O)[C@H](Cc2ccccc2)NC(=O)[C@H](CO)NC(=O)[C@@H](NC(=O)[C@H](CO)NC(=O)CNC(=O)[C@H](CO)NC(=O)[C@H](CCCCN=[N+]=[N-])NC(=O)[C@H](CCC(=O)O)NC(=O)[C@H](CCC(=O)O)NC(=O)[C@@H](N)CCC(=O)O)[C@@H](C)O)CCCCCCC=CCCC[C@@](C)(C(N)=O)NC(=O)[C@H](CC(C)C)NC1=O` [MP-948] (H-EEE[Lys(N3)]SGSTSF[R8]EYWALL[S5]-NH2; staple 11-18) are greater than 50 µM, 112 µM (≈ 245 µg/mL), greater than 10 µM and 1.48.
Take `C[C@H](NC(=O)[C@H](C)NC(=O)[C@H](C)NC(=O)[C@]1(C)CCCC=CCCCCCC[C@@](C)(NC(=O)[C@H](Cc2ccccc2)NC(=O)[C@@H](NC(=O)[C@H](C)NC(=O)CCNC(=O)[C@H](CCCCN=[N+]=[N-])NC(=O)[C@H](C)NC(=O)[C@H](C)NC(=O)[C@H](CCCNC(=N)N)NC(=O)[C@H](CCCNC(=N)N)NC(=O)[C@H](CO)NC(=O)[C@H](CCCNC(=N)N)NC(=O)[C@H](CO)NC(=O)[C@H](CCCNC(=N)N)NC(=O)CN)[C@@H](C)O)C(=O)N[C@@H](C)C(=O)N[C@@H](Cc2ccc(O)cc2)C(=O)N[C@@H](Cc2c[nH]c3ccccc23)C(=O)N[C@@H](C)C(=O)N[C@@H](C)C(=O)N[C@@H](CC2CCC2)C(=O)N1)C(N)=O` [MP-878] (H-GRSRSRRAA[Lys(N3)][βAla]ATF[R8]AYWAA[Cba][S5]AAA-NH2; staple 15-22): the Solubility entry in data set [2] is on record as “Poorly Behaved”. The cell entry EC50 in the data set “in vitro” stood at 2.1 µM. This molecule also had a logD in data set [3] of 2.81.
Molecule `CC(C)C[C@@H]1NC(=O)[C@H](C)NC(=O)[C@H](Cc2c[nH]c3ccccc23)NC(=O)[C@H](Cc2ccc(O)cc2)NC(=O)[C@H](CCC(=O)O)NC(=O)[C@](C)(NC(=O)[C@H](Cc2ccccc2)NC(=O)[C@H](CO)NC(=O)[C@@H](NC(=O)[C@H](CO)NC(=O)CNC(=O)[C@H](CO)NC(=O)[C@H](CCCCN=[N+]=[N-])NC(=O)[C@@H](N)CCC(=O)O)[C@@H](C)O)CCCCCCC=CCCC[C@@](C)(C(N)=O)NC(=O)[C@H](CC(C)C)NC1=O` [MP-0180] registered an EC50 in data set [1] (LDH: Cytotoxicity assay: EC50) greater than 50.6 µM. In addition, in the data set on HCT116 cells, the “LDH: Cytotoxicity assay: % Effect” value turned out to be 13.96%. The solubility kinetic in data set [2] came out at 24 µM (≈ 46.4 µg/mL). Besides, in “in vitro”, the cell entry EC50 stood at 0.495 µM. This molecule also showed a logD in data set [3] of 2.21.
As to `CC(=O)N[C@@H](CCC(=O)O)C(=O)N[C@@H](CCC(=O)O)C(=O)N[C@@H](CCC(=O)O)C(=O)N[C@@H](CCCCN=[N+]=[N-])C(=O)NCCC(=O)N[C@@H](CC(C)C)C(=O)N[C@H](C(=O)N[C@@H](Cc1ccccc1)C(=O)N[C@]1(C)CCCCCCC=CCCC[C@@](C)(C(=O)N[C@@H](CO)C(=O)N[C@@H](C)C(=O)N[C@@H](C)C(N)=O)NC(=O)[C@H](CC2CCC2)NC(=O)[C@H](CCC(N)=O)NC(=O)[C@H](C)NC(=O)[C@H](Cc2c[nH]c3ccccc23)NC(=O)[C@H](Cc2ccc(O)cc2)NC(=O)[C@H](CCC(=O)O)NC1=O)[C@@H](C)O` [MP-617], in data set [1] (LDH: Cytotoxicity assay: EC50), the concentration giving a half-maximal response (EC50) was greater than 50.6 µM. For the same molecule, the “LDH: Cytotoxicity assay: % Effect” value in the data set with HCT116 cells is given as -1.09%. Further, in data set [2], the solubility kinetic was 81.5 µM (≈ 192 µg/mL). For the same molecule, in “in vitro”, the cell entry EC50 was 0.842 µM. Besides, the logD in data set [3] was found to be 2.09.
As to `CC(C)C[C@H](NC(=O)CCNC(=O)[C@@H](N)CCCCN=[N+]=[N-])C(=O)N[C@H](C(=O)N[C@@H](Cc1ccccc1)C(=O)N[C@]1(C)CCCCCCC=CCCC[C@@](C)(C(N)=O)NC(=O)[C@H](CC2CCC2)NC(=O)[C@H](CC(C)C)NC(=O)[C@H](CCC(N)=O)NC(=O)[C@H](Cc2c[nH]c3ccccc23)NC(=O)[C@H](Cc2ccc(O)cc2)NC(=O)[C@H](CCC(=O)O)NC1=O)[C@@H](C)O` [MP-329] (H-[Lys(N3)][βAla]LTF[R8]EYWQL[Cba][S5]-NH2; staple 6-13), the EC50 was greater than 50.7 µM in data set [1] (LDH: Cytotoxicity assay: EC50) and 50.5 µM with HCT116 cells. Moreover, the solubility kinetic in data set [2] is 5 µM (≈ 8.71 µg/mL). Also, in “in vitro”, the cell entry EC50 came to 2.69 µM. In data set [3], this molecule had a logD of 2.71.
With `CC(=O)N[C@@H](CCC(=O)O)C(=O)N[C@@H](CCC(=O)O)C(=O)N[C@@H](CCCCN=[N+]=[N-])C(=O)NCCCCCC(=O)N[C@H](C(=O)N[C@@H](CO)C(=O)N[C@@H](Cc1ccccc1)C(=O)N[C@]1(C)CCCCCCC=CCCC[C@@](C)(C(N)=O)NC(=O)[C@H](CC(C)C)NC(=O)[C@H](CC(C)C)NC(=O)[C@H](C)NC(=O)[C@H](Cc2c[nH]c3ccccc23)NC(=O)[C@H](Cc2ccc(O)cc2)NC(=O)[C@H](CCC(=O)O)NC1=O)[C@@H](C)O` [MP-661], the EC50 in data set [1] (LDH: Cytotoxicity assay EC50) is greater than 50 µM. Besides, in data set [2], the solubility kinetic was determined as 27 µM (≈ 53.7 µg/mL). For the same molecule, in the data set “in vitro”, the cell entry EC50 was found to be 0.546 µM. In addition, the logD in data set [3] came to 2.02.
The corresponding values for `CC(C)C[C@@H]1NC(=O)[C@H](C)NC(=O)[C@H](Cc2c[nH]c3ccccc23)NC(=O)[C@H](Cc2ccc(O)cc2)NC(=O)[C@H](CCC(=O)O)NC(=O)[C@](C)(NC(=O)[C@H](Cc2ccccc2)NC(=O)[C@H](CO)NC(=O)[C@@H](NC(=O)[C@H](CO)NC(=O)CNC(=O)[C@H](CO)NC(=O)[C@@H](N)CCCCN=[N+]=[N-])[C@@H](C)O)CCCCCCC=CCCC[C@@](C)(C(=O)N[C@@H](CCC(=O)O)C(=O)N[C@@H](CCC(=O)O)C(=O)N[C@@H](CCC(=O)O)C(N)=O)NC(=O)[C@H](CC(C)C)NC1=O` [MP-951] (H-[Lys(N3)]SGSTSF[R8]EYWALL[S5]EEE-NH2; staple 8-15) are greater than 50 µM, 119 µM (≈ 261 µg/mL), 2.15 µM and 1.94.
Regarding `CC(=O)N[C@@H](CCC(=O)O)C(=O)N[C@@H](CCC(=O)O)C(=O)N[C@@H](CCC(=O)O)C(=O)N[C@@H](CCCCN=[N+]=[N-])C(=O)NCCC(=O)N[C@@H](CC(C)C)C(=O)N[C@H](C(=O)N[C@@H](Cc1ccccc1)C(=O)N[C@]1(C)CCCCCCC=CCCC[C@@](C)(C(=O)N[C@@H](CCC(=O)O)C(=O)N[C@@H](CC(N)=O)C(=O)N[C@@H](Cc2ccccc2)C(N)=O)NC(=O)[C@H](CC2CCC2)NC(=O)[C@H](CCC(N)=O)NC(=O)[C@H](C)NC(=O)[C@H](Cc2c[nH]c3ccccc23)NC(=O)[C@H](Cc2ccc(O)cc2)NC(=O)[C@H](CCC(=O)O)NC1=O)[C@@H](C)O` [MP-763] (Ac-EEE[Lys(N3)][βAla]LTF[R8]EYWAQ[Cba][S5]ENF-NH2; staple 9-16), in data set [1] (LDH: Cytotoxicity assay: EC50), the EC50 was greater than 50.7 µM. Further, the solubility kinetic in data set [2] stood at 156 µM (≈ 393 µg/mL). The cell entry EC50 in “in vitro” was determined as 1.14 µM. The same molecule registered a logD in data set [3] of 1.86.
The molecule `CC(C)C[C@@H]1NC(=O)[C@H](C)NC(=O)[C@H](Cc2c[nH]c3ccccc23)NC(=O)[C@H](Cc2ccc(O)cc2)NC(=O)[C@H](CCC(=O)O)NC(=O)[C@](C)(NC(=O)[C@H](Cc2ccccc2)NC(=O)[C@H](CO)NC(=O)[C@@H](NC(=O)[C@H](CO)NC(=O)CNC(=O)[C@H](CO)NC(=O)[C@H](CCCCN=[N+]=[N-])NC(=O)[C@H](CCC(=O)O)NC(=O)[C@H](CCC(=O)O)NC(=O)[C@@H](N)CCC(=O)O)[C@@H](C)O)CCCCCCC=CCCC[C@@](C)(C(=O)N[C@@H](CCC(=O)O)C(=O)N[C@@H](CC(N)=O)C(N)=O)NC(=O)[C@H](CC(C)C)NC1=O` [MP-949] (H-EEE[Lys(N3)]SGSTSF[R8]EYWALL[S5]EN-NH2; staple 11-18) returned an EC50 in data set [1] (LDH: Cytotoxicity assay EC50) greater than 50 µM. In addition, in data set [2], the solubility kinetic is 104 µM (≈ 253 µg/mL). Further, in “in vitro”, the cell entry EC50 is 4.35 µM. In data set [3], the pH-dependent lipophilicity (logD) stood at 1.66.
